{"source": "patent US20230398137A1", "about": "“METHODS FOR LOWERING HBA1C LEVEL WITH A COMBINATION OF A BET BROMODOMAIN INHIBITOR AND A SODIUM DEPENDENT GLUCOSE TRANSPORT 2 INHIBITOR” (Resverlogix Corp., priority 2020, published 2023)", "key": {"[1]": {"system": "HbA1c", "assay": "BETonMACE Phase 3 trial (NCT02586155), post-hoc analysis of HbA1c from baseline to last visit on treatment (LVT)", "assay_type": "in vivo, human", "procedure": "Apabetalone (RVX-208) was evaluated in a recently completed clinical Phase 3 trial (BETonMACE; NCT02586155) for the effect on MACE in type 2 diabetes patients with low HDL cholesterol (below 40 mg/dL for males and below 45 mg/dL for females) and a recent acute coronary syndrome (ACS) (preceding 7-90 days). All patients received high intensity statin treatment or maximum tolerated statin treatment, which was 20-40 mg daily or a maximum daily dose of 40 mg for rosuvastatin or 40-80 mg daily or a maximum daily dose of 80 mg for atorvastatin.\nPatients (n=2425) with ACS in the preceding 7 to 90 days, with type 2 diabetes and low HDL cholesterol (≤40 mg/dl for men, ≤45 mg/dl for women), receiving intensive or maximum-tolerated therapy with atorvastatin or rosuvastatin, were assigned in double-blind fashion to receive apabetalone 100 mg orally twice daily or matching placebo.\nSpecifically, a total of 150 patients received both RVX-208 and an SGLT2 inhibitor; a total of 148 received an SGLT2 inhibitor, but no RVX-208; a total of 1062 received RVX-208, but no SGLT2 inhibitor; a total of 1058 received neither RVX-208 or an SGLT2 inhibitor.\nPatients who were randomized and received at least one dose of SGLT2 treatment while actively receiving study drug (RVX-208 or placebo) were counted as those receiving a combination of SGLT2 treatment with either RVX-208 or placebo. Patients receiving more than one drug therapy within the SGLT2 inhibitor class were counted only once based upon whichever drug therapy patients continued taking at the end of treatment with study drug (RVX-208 or placebo). In cases where patients were receiving more than one drug therapy within the SGLT2 inhibitor class at the end of treatment with study drug, whichever SGLT2 inhibitor therapy was received for longer was counted.\nThe last visit on treatment (LVT) timepoint represented the longest study exposure duration for patients receiving RVX-208 or placebo with and without SGLT2 inhibitors and is the focus of this analysis."}, "[2]": {"system": "HbA1c", "details": "over the duration of the trial; 95% CI −0.61 to −0.56; p<0.001; cited from earlier work"}, "[3]": {"system": "HbA1c", "details": "T2DM and albuminuric CKD, cited from earlier work"}, "[4]": {"system": "HbA1c", "details": "cited from earlier work"}}, "note": "Like-named read-outs stand apart in the source and are kept apart here."}
{"smiles": "COc1cc(OC)c2c(=O)[nH]c(-c3cc(C)c(OCCO)c(C)c3)nc2c1", "note": "[RVX-208, 2-(4-(2-hydroxyethoxy)-3,5-dimethylphenyl)-5,7-dimethoxyquinazolin-4(3H)-one]", "values": [{"measurement": "ability to reduce levels of HbA1c (in words)", "setting": "[1]; T2DM patients with a recent ACS", "value": "did not demonstrate the ability to statistically reduce levels of HbA1c"}, {"measurement": "median HbA1c at baseline", "setting": "[1]; T2DM patients with low HDL cholesterol and recent ACS on high intensity or maximum tolerated statin, baseline value of the group", "value": 7.3, "unit": "%"}, {"measurement": "median HbA1c at the last visit on treatment (LVT)", "setting": "[1]; T2DM patients with recent ACS on statin, apabetalone 100 mg orally twice daily where given, median time to LVT about 2 years", "value": 7.3, "unit": "%"}, {"measurement": "median change of HbA1c from baseline to LVT", "setting": "[1]; T2DM patients with recent ACS, FIG. 3", "value": "+0.20%"}, {"measurement": "mean change of HbA1c from baseline to LVT", "setting": "[1]; T2DM patients with recent ACS, FIG. 4", "value": "+0.22%"}]}
{"smiles": "Cc1ccc([C@@H]2O[C@H](CO)[C@@H](O)[C@H](O)[C@H]2O)cc1Cc1ccc(-c2ccc(F)cc2)s1", "note": "[canagliflozin]", "values": [{"measurement": "mean difference in HbA1c between drug group and placebo group", "setting": "[2]", "value": "−0.58", "unit": "%"}, {"measurement": "least-squares mean level of HbA1c lower than in the placebo group by", "setting": "[3]; at 13 weeks, 95% CI 0.26 to 0.37", "value": 0.31, "unit": "%"}, {"measurement": "overall mean difference in the reduction of HbA1c versus placebo", "setting": "[3]; throughout the trial, 95% CI 0.20 to 0.31", "value": 0.25, "unit": "%"}]}
{"smiles": "OC[C@H]1O[C@@H](c2ccc(Cl)c(Cc3ccc(O[C@H]4CCOC4)cc3)c2)[C@H](O)[C@@H](O)[C@@H]1O", "note": "[empagliflozin]", "values": [{"measurement": "reduction of HbA1c compared to placebo (adjusted mean difference)", "setting": "[4]; 10-mg group, after 12 weeks, 95% CI −0.58 to −0.49", "value": 0.54, "unit": "%"}, {"measurement": "adjusted mean difference in HbA1c levels versus placebo", "setting": "[4]; 10-mg group, week 94, 95% CI −0.48 to −0.36", "value": "−0.42", "unit": "%"}, {"measurement": "adjusted mean difference in HbA1c levels versus placebo", "setting": "[4]; 10-mg group, week 206, 95% CI −0.40 to −0.08", "value": "−0.24", "unit": "%"}, {"measurement": "adjusted mean difference in HbA1c compared to placebo", "setting": "[4]; 25-mg group, after 12 weeks, 95% CI −0.64 to −0.55", "value": "−0.60", "unit": "percentage points"}, {"measurement": "adjusted mean difference in HbA1c levels versus placebo", "setting": "[4]; 25-mg group, week 94, 95% CI −0.54 to −0.41", "value": "−0.47", "unit": "%"}, {"measurement": "adjusted mean difference in HbA1c levels versus placebo", "setting": "[4]; 25-mg group, week 206, 95% CI −0.51 to −0.20", "value": "−0.36", "unit": "%"}]}
